The target in one assay is T1, HLA-A*0201 (Homo sapiens, UniProt P04439, D140Y/D185E/D98H/E176V/E277Q/G131W/G231S/I119V/I121R/I166T/I218V/L300P/L318F/N151K/N90K/P208A/P217A/Q86G/Q94H/R138H/R169H/T345S).
T1 construct: Human T2 cells (purchased from the American Type Culture Collection, ATCC) (ATCC No. CRL-1992) expressing the HLA-A*0201 gene; endogenous in cells; host or cells: human T2 cells (ATCC CRL-1992)
Put plainly: T2 cell-stabilization assay (T2-binding). The settings on record: for T2-binding Ratio of MFI: T2 cells 5×10^5, peptide 50 µg/mL + β2-microglobulin 5 µg/mL, 28°C 16–18 h, then brefeldin A 10 µg/mL 37°C 3 h, FITC anti-HLA-A2, flow cytometry, MFI relative to negative control HCV C55-74 (set as 1); for binding affinity, MFI higher than the baseline: baseline = negative control HCV C55-74, called modest binding affinity. Here is the method: T2 cells (5×10^5) cultured in 96-well U-bottom plates were incubated with the individual 9-mer synthetic peptides (50 µg/mL) and β2-microglobulin (5 µg/mL; Sigma-Aldrich) at 28°C for 16–18 hours. Subsequently, brefeldin A (10 µg/mL) was added and the cells were incubated at 37°C for another 3 hours, then washed and stained with fluorescence isothiocyanate (FITC)-conjugated mouse anti-human HLA-A2 antibody (SeroTec). Peptide-loaded T2 cells were acquired and analyzed on the FACScan flow cytometer using CellQuest software (Becton Dickinson). GLC-9 peptide was used as positive control (PC). The mean fluorescence intensity (MFI) represents the binding affinity of each peptide compared to MFI (set as MFI = 1) obtained from negative control (NC), which is T2 cells loaded with HCV peptide C55-74.
Twenty-five 9-mer synthetic peptides derived from the RSV F glycoprotein sequence presumed to encompass HLA-A*0201 binding motifs were synthesized (Table 1). Each was tested for its ability to bind HLA-A*0201 molecules by T2 cell-based binding assay (data not shown). The relative mean fluorescence intensity (MFI) obtained from the positive control (PC) peptide derived from Epstein-Barr virus capsid protein (GLC-9, a previously defined HLA-A*0201-restricted CTL epitope) was twofold (MFI = 1.96) compared to the baseline MFI = 1 obtained from the negative control (NC) treated with an unrelated peptide HCV C55-74 (a C57BL/6-specific CD4 epitope). […] The remaining peptides had no detectable binding to the HLA-A*0201 molecules. Apparently, the different MFIs generated by binding of RSV F-derived peptides to HLA-A*0201 reflects on the binding specificity of different peptides to a given HLA molecule.

Assay [1] deals with splenocytes from HLA-A*0201 transgenic C57BL/6 mice. Put plainly: IFN-γ ELISPOT of splenocytes restimulated with peptide. Format: cell-based, mouse. The settings on record: for IFN-γ ELISPOT, RSV: splenocytes of HLA-Tg B6 mice primed and boosted i.n. with 10^4 pfu RSV-B1; for IFN-γ ELISPOT, RSV / IFN-γ ELISPOT, rAd-F0: restimulated with 2 µg peptide, representative of two experiments, five mice per group; for IFN-γ ELISPOT, rAd-F0: splenocytes of HLA-Tg B6 mice primed and boosted i.n. with 10^7 pfu rAd-F0; for IFN-γ level in restimulated splenocytes (ELISPOT, text grading): splenocytes of rAd-F0- or RSV B1-primed and boosted HLA-Tg B6 mice, high = over 100 spots, moderate = over 50 spots. Here is the method: (§1) To screen the immunodominance of epitopic peptide in the induction of RSV-F specific Th1/Th2 expression, HLA-A*0201 transgenic C57BL/6 mice were anesthetized with isoflurane and immunized with 1×10^7 pfu/50 µL of rAd-F0 or rAd-LacZ or 1×10^4 live RSV B1 via the intranasal (i.n.) route. Twenty days later, the mice were given booster immunization i.n. with the same dose. After 10 days of boost, mice were sacrificed and splenocytes were isolated for the cytokine ELISPOT assay. For peptide-based vaccination, transgenic mice were immunized subcutaneously (s.c.) with 50 µg of the individual synthetic peptides emulsified in 25 µL of incomplete Freund's adjuvant (IFA) (Sigma-Aldrich) and then boosted after 10 days s.c. with the same dose of the respective peptides mixed with IFA. Mice were sacrificed 7 days after the booster and splenocytes were isolated for in vitro peptide-restimulation. For challenge studies, 10^7 pfu of live RSV-B1 was administered i.n. seven days after the booster immunization with peptide vaccines. Mice were sacrificed on day 4 post-challenge and the lung tissues were collected and subjected to further analysis by flow cytometry, ELISA, CTL assay and immunohistochemistry. Mice body weight was monitored daily.
(§2) […] RBC-free splenocyte suspensions prepared from the individual mice were seeded in individual wells of 96-well filtration plates (Millipore) precoated with capturing monoclonal antibodies for murine IL-2, IL-4 or IFN-γ (0.5 µg/ well) (eBioscience) and blocked with conditioned medium (CM) for 1 hour at room temperature. The splenocytes were added with the individual RSV F 9-mer synthetic peptides (2 µg each) or GLC-9 dissolved in CM (100 µL). The splenocytes added with Con A (10 µg/mL) were used as positive control. Unstimulated splenocytes were used as negative control. The plates were kept in a 37°C incubator equilibrated with 5% CO2 for 48 hours. The individual wells of the ELISPOT plates were washed three times with washing buffer (0.05% tween20 in PBS, PBS-T), and then 0.2 µg of the corresponding biotinylated detection monoclonal antibodies specific for IL-2, IL-4 and IFN-γ were added to detect the respective cytokines. After 2 hours of incubation at room temperature, the plates were washed and 100 µl of streptavidin-alkaline phosphatase (1∶ 250 dilution) was added to the individual wells, and the plates were incubated at room temperature for 45 minutes. Finally, the plates were washed four times with the wash buffer, and 100 µl of AEC (3-amine-9-ethylcarbazole, Sigma-Aldrich) substrate was added to each well and allowed to react for 30 minutes at room temperature in the dark. The plates were then washed with water, air-dried overnight, and the spots per well were scored using the immunospot counting reader (C.T.L. IMMUNOSPOT, CELLULAR TECHNOLOGY LTD). Results were expressed as the number of cytokine-secreting cells per 5×10^5 splenocytes seeded in the initial culture.
(§3) Figure 1 Induction of IFN-γ and IL-2 in splenocytes from RSV F peptide immunized HLA-A*0201 transgenic mice upon secondary recall. Splenocytes harvested on day 30 from HLA-A-Tg B6 mice primed and boosted at 20 days interval intranasally with 10^7 pfu of rAd-F0 (□) or 10^4 pfu of RSV-B1 (▪)were restimulated with 2 µg of the individual RSV F peptide or 10 µg/ml Con A for 5 days in the presence of murine IL-2 . After stimulation, 5×10^5 splenocytes were seeded to anti-IFN-γ (A) or anti-IL-2 (B) capture antibody coated ELISPOT plates for 2 days for ELISPOT assay as described in Materials and Methods. Cytokine-positive immunospots were developed and the results are expressed as the number of immunospots +/−2 standard deviations for each experimental group. Data is representative of results derived from two independent experiments, each with five mice per group.

The test system is the same in assay [2]. Briefly: IL-2 ELISPOT of splenocytes restimulated with peptide. Format: cell-based, mouse. The settings on record: for IL-2 ELISPOT, RSV: splenocytes of HLA-Tg B6 mice primed and boosted i.n. with 10^4 pfu RSV-B1; for IL-2 ELISPOT, RSV / IL-2 ELISPOT, rAd-F0: restimulated with 2 µg peptide, representative of two experiments, five mice per group; for IL-2 ELISPOT, rAd-F0: splenocytes of HLA-Tg B6 mice primed and boosted i.n. with 10^7 pfu rAd-F0; for IL-2 level in restimulated splenocytes (ELISPOT, text grading): splenocytes of rAd-F0- or RSV B1-primed and boosted HLA-Tg B6 mice, high = over 100 spots, moderate = over 50 spots. On the procedure:
as §1, §2, §3

The source of these data is paper PMC3183052, “Immunoprotectivity of HLA-A2 CTL Peptides Derived from Respiratory Syncytial Virus Fusion Protein in HLA-A2 Transgenic Mouse” (PLoS ONE, 2011).

For the substance “4: HLA-A*0201-restricted 9-mer synthetic peptide from F protein of RSV-B1 strain (ELDKYKNAV) [compound 4]”, the “T2-binding Ratio of MFI” value in the assay with HLA-A*0201 is reported as 0.94. Further, in assay [1], the “IFN-γ ELISPOT, RSV” value is on record as 34.5 cytokine-secreting cells per 5×10^5 splenocytes; the “IFN-γ ELISPOT, rAd-F0” value is 88.5 cytokine-secreting cells per 5×10^5 splenocytes; the “IFN-γ level in restimulated splenocytes (ELISPOT, text grading)” value (“IFN-γ level in restimulated splenocytes” below) is listed as “over 50 spots”. Moreover, in assay [2], the “IL-2 ELISPOT, RSV” value is on record as 51.5 cytokine-secreting cells per 5×10^5 splenocytes; the “IL-2 ELISPOT, rAd-F0” value was 49.5 cytokine-secreting cells per 5×10^5 splenocytes; the “IL-2 level in restimulated splenocytes (ELISPOT, text grading)” value (“IL-2 level in restimulated splenocytes” for short) is “over 50 spots”.

Turning to “5: HLA-A*0201-restricted 9-mer synthetic peptide from F protein of RSV-B1 strain (FMNYTLNNT) [compound 5]”, the “T2-binding Ratio of MFI” value in the assay with HLA-A*0201 worked out at 0.96. Also, in assay [1], the “IFN-γ ELISPOT, RSV” value is recorded as 12.5 cytokine-secreting cells per 5×10^5 splenocytes; the “IFN-γ ELISPOT, rAd-F0” value was 73 cytokine-secreting cells per 5×10^5 splenocytes; the “IFN-γ level in restimulated splenocytes” value was “over 50 spots”. In assay [2], the “IL-2 ELISPOT, RSV” value is given as 58.5 cytokine-secreting cells per 5×10^5 splenocytes; the “IL-2 ELISPOT, rAd-F0” value is given as 38 cytokine-secreting cells per 5×10^5 splenocytes; the “IL-2 level in restimulated splenocytes” value was “over 50 spots”.

Consider “6: HLA-A*0201-restricted 9-mer synthetic peptide from F protein of RSV-B1 strain (FLLGVGSAI) [compound 6]”, for which the “binding affinity, MFI higher than the baseline” value in the assay with HLA-A*0201 (T2 cell-based binding assay) is around 10%. The “T2-binding Ratio of MFI” value with HLA-A*0201 is given as 1.14. In assay [1], the “IFN-γ ELISPOT, RSV” value was 61.5 cytokine-secreting cells per 5×10^5 splenocytes; the “IFN-γ ELISPOT, rAd-F0” value is recorded as 65 cytokine-secreting cells per 5×10^5 splenocytes; the “IFN-γ level in restimulated splenocytes” value is recorded as “over 50 spots”. Moreover, in assay [2], the “IL-2 ELISPOT, RSV” value was 32 cytokine-secreting cells per 5×10^5 splenocytes and the “IL-2 ELISPOT, rAd-F0” value is 29 cytokine-secreting cells per 5×10^5 splenocytes.

With “7: HLA-A*0201-restricted 9-mer synthetic peptide from F protein of RSV-B1 strain (HLEGEVNKI) [compound 7]”, the “T2-binding Ratio of MFI” value with HLA-A*0201 came out at 0.83. For the same substance, in assay [1], the “IFN-γ ELISPOT, RSV” value is recorded as 81 cytokine-secreting cells per 5×10^5 splenocytes; the “IFN-γ ELISPOT, rAd-F0” value is listed as 68.5 cytokine-secreting cells per 5×10^5 splenocytes; the “IFN-γ level in restimulated splenocytes” value was “over 50 spots”. Also, in assay [2], the “IL-2 ELISPOT, RSV” value was 33 cytokine-secreting cells per 5×10^5 splenocytes; the “IL-2 ELISPOT, rAd-F0” value is given as 68 cytokine-secreting cells per 5×10^5 splenocytes; the “IL-2 level in restimulated splenocytes” value is on record as “over 50 spots”.

In the case of “8: HLA-A*0201-restricted 9-mer synthetic peptide from F protein of RSV-B1 strain (ALLSTNKAV) [compound 8]”, in the assay with HLA-A*0201 (T2 cell-based binding assay), the “binding affinity, MFI higher than the baseline” value is around 10%. In addition, the “T2-binding Ratio of MFI” value in the assay with HLA-A*0201 came to 1.50. In addition, in assay [1], the “IFN-γ ELISPOT, RSV” value was 86 cytokine-secreting cells per 5×10^5 splenocytes; the “IFN-γ ELISPOT, rAd-F0” value is recorded as 36 cytokine-secreting cells per 5×10^5 splenocytes; the “IFN-γ level in restimulated splenocytes” value is given as “over 50 spots”. Further, in assay [2], the “IL-2 ELISPOT, RSV” value is reported as 43 cytokine-secreting cells per 5×10^5 splenocytes and the “IL-2 ELISPOT, rAd-F0” value is 8.5 cytokine-secreting cells per 5×10^5 splenocytes.

Consider “9: HLA-A*0201-restricted 9-mer synthetic peptide from F protein of RSV-B1 strain (LLSTNKAVV) [compound 9]”, for which, in the assay with HLA-A*0201, the “T2-binding Ratio of MFI” value is listed as 1.53. Moreover, in assay [1], the “IFN-γ ELISPOT, RSV” value is given as 1 cytokine-secreting cells per 5×10^5 splenocytes and the “IFN-γ ELISPOT, rAd-F0” value is 27.5 cytokine-secreting cells per 5×10^5 splenocytes. In addition, in assay [2], the “IL-2 ELISPOT, RSV” value is 2 cytokine-secreting cells per 5×10^5 splenocytes and the “IL-2 ELISPOT, rAd-F0” value is recorded as 5 cytokine-secreting cells per 5×10^5 splenocytes.

For “10: HLA-A*0201-restricted 9-mer synthetic peptide from F protein of RSV-B1 strain (STNKAVVSL) [compound 10]”, the “T2-binding Ratio of MFI” value in the assay with HLA-A*0201 was 0.91. Moreover, in assay [1], the “IFN-γ ELISPOT, RSV” value was 9.5 cytokine-secreting cells per 5×10^5 splenocytes and the “IFN-γ ELISPOT, rAd-F0” value was 43 cytokine-secreting cells per 5×10^5 splenocytes. For the same substance, in assay [2], the “IL-2 ELISPOT, RSV” value is recorded as 39.5 cytokine-secreting cells per 5×10^5 splenocytes and the “IL-2 ELISPOT, rAd-F0” value is on record as 0 cytokine-secreting cells per 5×10^5 splenocytes.

For the substance “RPQPRGRRQPIPKARQPEGR [HCV C55-74, reference compound]”, the “binding to the HLA-A*0201 molecules (in words)” value on HLA-A*0201 (T2 cell-based binding assay) is “no binding”. The “T2-binding Ratio of MFI” value was 1 at HLA-A*0201 and 1.00 at HLA-A*0201 (listed as N).
